Key:
[1] = test system: banana WT and ALS edited embryos; assay: CSF in ECS regeneration, optimisation for edited embryos; assay type: cell-based; conditions: 3 months treatment
Description: Data were obtained for using CSF in ECS regeneration (3 months treatment) for concentrations 0, 25, 50 and 100 μg/L.

[2] = test system: Sugar cane callus; conditions: after 5 weeks; 3.6, 20, 50, 200, 500 μg/L tested; cited from earlier work
[3] = test system: ALS1 or ALS2; assay: Genotyping of CSF-selected samples (PBE experiments); assay type: cell-based, banana; conditions: across all experiments, embryos and shoots
From the text: gDNA from embryos and plantlets was extracted and qPCR was used to test for the presence of integrated tDNA in the plant genome. Three independent qPCRs were run on each sample with different sets of primers (listed below) spanning the tDNA, ranging from the left to right border. An additional qPCR was run on an endogenous banana gene (actin) for normalisation of Ct values. All qPCRs were run on the LightCycler® 96 System (Roche) using PowerUp™ SYBR® Green Master Mix (Thermo Fisher Scientific™).
For edit validation, amplicons for each target gene (als1, als2, ppo2, aco1) were made using Q5® High-Fidelity 2× Master Mix (New England Biolabs, NEB) using reaction settings listed below. PCR products were purified using Monarch® PCR & DNA Cleanup Kit (NEB) according to manufacturer's specifications. The amplicons were after validated by Sanger sequencing.

[4] = test system: Rice protoplasts; conditions: for 10dd; cited from earlier work
[5] = test system: banana ECS; assay: Comparison of Agrobacterium transformation and particle bombardment under CSF selection; assay type: cell-based; conditions: CSF 25 μg/L, particle bombardment
Description: Transformation using agrobacterium and particle bombardment was compared.
Banana ECS with cells 2/3 days old was pelleted and resuspended in CS medium. 0.5 mL of the suspension (approximately 0.1 mL of ECS) was split accordingly to the number of transformations into small Eppendorf tubes. The cells were incubated at 45° C. for 5 min and after they had cooled down for another 5 min. Then, 1 mL of agrobacterium suspension was added to the banana ECS. The mixture was mixed well and spun down at 1000 rpm for 5 min, and then, it was incubated for 25 min at room temperature. The banana cells were pooled, and the bacteria suspension was removed. The cells were inoculated in CS plates supplemented with acetosyringone 100 μM for 3 days at room temperature to promote transformation.
After 3 days, the banana ECS were collected from the previous media and transferred to CS media supplemented with cefotaxime 300 mg/L. One week later, the banana cells were transferred to EDM plates supplemented with cefo 300 mg/L (control), or cefo 300 mg/L and CSF 25 μg/L or cefo 300 mg/L and CSF 50 μg/L. The media was refreshed every 2 weeks until embryos were developed. Subsequently, the banana embryos were transferred to maturation media without CSF (EMM) for a month and then they were transferred to germination medium (GM4) without CSF until shoots developed.

[6] = test system: Banana embryogenic cell suspensions (ECS); assay: CSF kill curves in banana ECS (number of embryos after short CSF treatment); assay type: cell-based; conditions: for Number of banana embryos developed (Avg): 3 months after treatment
Description: Banana embryogenic cell suspensions (ECS) were pelleted in a falcon tube and mixed with CS (cell suspension) medium to a final cell density of 1-3%. An equal volume of the mixture was split into 6 flasks and the relevant amount of CSF was added to the final concentrations of 0, 10, 20, 50, 100 and 500 μg/L (1st kill curve) or 0, 0.5, 5, 50 and 100 mg/L (2nd kill curve). The ECS-CSF mixtures were placed/inoculated in 6 well plates (5 mL per well) and incubated at 65 rpm in the dark for 3, 5, 10, 15 days at 25° C.
At each time point, the ECS were collected in a cell strainer and washed with CS (cell suspension) medium to remove all the CSF. The cells were collected from the strainer and inoculated into embryo developing media (EDM) plates and developed for 2-3 months (until fully developed embryos were observed). The cells/embryos were subcultured every month. Each treatment was performed in triplicate and treated independently.
The number of embryos was assessed 2-3 months after CSF treatment. The embryos were counted under a stereo microscope using a 50-square grid to help the counting. For plates with too many embryos, only 3 squares from the 50 were counted and then the number of embryos was normalised for all of the plate. For the other plates all embryos were counted. Mean values±standard deviation (Stdev) were obtained from 3 technical replicates.

SMILES: COc1nc(C)nc(NC(=O)NS(=O)(=O)c2ccccc2Cl)n1 [CSF, chlorsulfuron]
- Frequency of ALS edited embryos recovered after selection ([1]; CSF 25 μg/L): 1500 ± 500
- Frequency of WT embryos recovered after selection ([1]; CSF 25 μg/L): 0
- Frequency of ALS edited embryos recovered after selection ([1]; CSF 50 μg/L): 750 ± 250
- Frequency of WT embryos recovered after selection ([1]; CSF 50 μg/L): 0
- Frequency of ALS edited embryos recovered after selection ([1]; CSF 100 μg/L): 0
- Frequency of WT embryos recovered after selection ([1]; CSF 100 μg/L): 0
- Best concentration for selection [2]: 3.6 µg/L
- Non-transgenic rate in CSF selected samples [3]: > 10%
- CSF concentration reported to be effective [4]: 3.6 µg/L
- Suitability for selection of edited bombarded cells [5]: too strong for selection of edited bombarded cells
- Embryo number, 1st CSF kill curve ([6]; 0, 10, 20, 50, 200, 500 μg/L CSF for 3, 5, 10 and 15 days): major differences in embryo number were not observed
- Fold-change non-CSF/+CSF (number of embryos) ([6]; 0.5 mg/L CSF for 5dd): 2.9
- Number of banana embryos developed (Avg) ([6]; 0.5 mg/L CSF for 5dd, 3 technical replicates): 1109
- Fold-change non-CSF/+CSF (number of embryos) ([6]; 0.5 mg/L CSF for 10dd): 32.6
- Number of banana embryos developed (Avg) ([6]; 0.5 mg/L CSF for 10dd): 127
- Fold-change non-CSF/+CSF (number of embryos) ([6]; 0.5 mg/L CSF for 15dd): 22.3
- Number of banana embryos developed (Avg) ([6]; 0.5 mg/L CSF for 15dd): 217
- Fold-change non-CSF/+CSF (number of embryos) ([6]; 5 mg/L CSF for 5dd): 24.9
- Number of banana embryos developed (Avg) ([6]; 5 mg/L CSF for 5dd): 127
- Fold-change non-CSF/+CSF (number of embryos) ([6]; 5 mg/L CSF for 10dd): 229.9
- Number of banana embryos developed (Avg) ([6]; 5 mg/L CSF for 10dd): 18
- Fold-change non-CSF/+CSF (number of embryos) ([6]; 5 mg/L CSF for 15dd): 167.0
- Number of banana embryos developed (Avg) ([6]; 5 mg/L CSF for 15dd): 29
- Decrease in the number of embryos ([6]; 5 mg/L CSF for 10 days): higher than 200 ×
- Fold-change non-CSF/+CSF (number of embryos) ([6]; 50 mg/L CSF for 5dd): 54.5
- Number of banana embryos developed (Avg) ([6]; 50 mg/L CSF for 5dd): 58
- Fold-change non-CSF/+CSF (number of embryos) ([6]; 50 mg/L CSF for 10dd): 459.8
- Number of banana embryos developed (Avg) ([6]; 50 mg/L CSF for 10dd): 9
- Fold-change non-CSF/+CSF (number of embryos) ([6]; 50 mg/L CSF for 15dd): 1210.5
- Number of banana embryos developed (Avg) ([6]; 50 mg/L CSF for 15dd): 4
- Fold-change non-CSF/+CSF (number of embryos) ([6]; 100 mg/L CSF for 5dd): 55.5
- Number of banana embryos developed (Avg) ([6]; 100 mg/L CSF for 5dd): 57
- Fold-change non-CSF/+CSF (number of embryos) ([6]; 100 mg/L CSF for 10dd): 517.3
- Number of banana embryos developed (Avg) ([6]; 100 mg/L CSF for 10dd): 8
- Fold-change non-CSF/+CSF (number of embryos) ([6]; 100 mg/L CSF for 15dd): 345.9
- Number of banana embryos developed (Avg) ([6]; 100 mg/L CSF for 15dd): 14
- CSF concentrations at which colour changes in banana ECS were observed ([6]; 2nd kill curve, after treatment): higher than 5 mg/L
- Minimal lethal dose (concentration reducing number of embryos 100×; measure of success met) ([6]; 10 days of treatment): 5 mg/L
- Killing of banana cells ([6]; five days of treatment, 2nd kill curve): inefficient for killing banana cells

— patent US20250034586A1, “METHOD FOR EDITING BANANA GENES” (Tropic Biosciences UK Limited, priority 2021, published 2025)
